The text below walks through data of the supplement of paper PMC10307832.

Test in all cases: relative viability (nuclei count vs DMSO), 5 days (fraction); higher = more cells survive
Compound in the assay “NVP-TAE684 + Navitoclax”: COc1cc(N2CCC(N3CCN(C)CC3)CC2)ccc1Nc1ncc(Cl)c(Nc2ccccc2S(=O)(=O)C(C)C)n1 [NVP-TAE684] + CC1(C)CCC(c2ccc(Cl)cc2)=C(CN2CCN(c3ccc(C(=O)NS(=O)(=O)c4ccc(N[C@H](CCN5CCOCC5)CSc5ccccc5)c(S(=O)(=O)C(F)(F)F)c4)cc3)CC2)C1 [Navitoclax] (partner 0.5 µM)
In short, it runs like this:
(§1)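 Lung cancer cell lines were pin-tool dosed in 1536-well plates on the day after seeding, with either a lone drug or a fixed anchor-drug dose plus five library-drug doses (not always all listed) in √10 steps. Nuclei were counted on 4× images after 5 days. Relative viability is the ratio of treated-well to vehicle-well nuclei counts, with each value a median of duplicate plates.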

Compound in the assay “Vandetanib + Crizotinib”: COc1cc2/c(=N/c3ccc(Br)cc3F)nc[nH]c2cc1OCC1CCN(C)CC1 [Vandetanib] + C[C@@H](Oc1cc(-c2cnn(C3CCNCC3)c2)cnc1N)c1c(Cl)ccc(F)c1Cl [Crizotinib] (partner 1 µM)
In short, it runs like this:
as §1

Compound in the assay “NVP-TAE684 + Crizotinib”: COc1cc(N2CCC(N3CCN(C)CC3)CC2)ccc1Nc1ncc(Cl)c(Nc2ccccc2S(=O)(=O)C(C)C)n1 [NVP-TAE684] + C[C@@H](Oc1cc(-c2cnn(C3CCNCC3)c2)cnc1N)c1c(Cl)ccc(F)c1Cl [Crizotinib] (partner 1 µM)
The gist of the method: as §1

Compound in the assay “CUDC-101 + Bortezomib”: C#Cc1cccc(Nc2ncnc3cc(OC)c(OCCCCCCC(=O)NO)cc23)c1 [CUDC-101] + CC(C)C[C@H](NC(=O)[C@H](Cc1ccccc1)NC(=O)c1cnccn1)B(O)O [Bortezomib] (partner 0.002 µM)
The gist of the method:
as §1

Turning to LXF-289, the relative viability with NVP-TAE684 + Navitoclax (first compound 0.2 µM) was 0.966; in the assay with NVP-TAE684 + Navitoclax (first compound 0.6325 µM), 0.966; in the assay with NVP-TAE684 + Navitoclax (first compound 2 µM), 0.803; with Vandetanib + Crizotinib (first compound 0.02 µM), 0.801; in the assay with Vandetanib + Crizotinib (first compound 0.06325 µM), 0.789; in the assay with Vandetanib + Crizotinib (first compound 0.2 µM), 0.827. Also, the relative viability in the assay with Vandetanib + Crizotinib (first compound 0.6325 µM) turned out to be 0.828; in the assay with Vandetanib + Crizotinib (first compound 2 µM), 0.792; with NVP-TAE684 + Crizotinib (first compound 0.2 µM) it was 0.852; in the assay with NVP-TAE684 + Crizotinib (first compound 0.6325 µM) it was 0.791; with NVP-TAE684 + Crizotinib (first compound 2 µM) it was 0.706; with CUDC-101 + Bortezomib (first compound 0.01 µM), 1.02. The relative viability was 0.987 with CUDC-101 + Bortezomib (first compound 0.03162 µM), 0.972 with CUDC-101 + Bortezomib (first compound 0.1 µM), 0.953 with CUDC-101 + Bortezomib (first compound 0.3162 µM) and 0.704 in the assay with CUDC-101 + Bortezomib (first compound 1 µM).

On to NCI-H23, for which the relative viability in the assay with NVP-TAE684 + Navitoclax (first compound 0.2 µM) was 0.806; in the assay with NVP-TAE684 + Navitoclax (first compound 0.6325 µM) it was 0.785; with NVP-TAE684 + Navitoclax (first compound 2 µM) it was 0.607; in the assay with Vandetanib + Crizotinib (first compound 0.02 µM) it was 0.64; in the assay with Vandetanib + Crizotinib (first compound 0.06325 µM), 0.573; with Vandetanib + Crizotinib (first compound 0.2 µM), 0.514. In addition, the relative viability in the assay with Vandetanib + Crizotinib (first compound 0.6325 µM) was determined as 0.527; with Vandetanib + Crizotinib (first compound 2 µM), 0.451; in the assay with NVP-TAE684 + Crizotinib (first compound 0.2 µM) it was 0.463; in the assay with NVP-TAE684 + Crizotinib (first compound 0.6325 µM), 0.451; in the assay with NVP-TAE684 + Crizotinib (first compound 2 µM), 0.254; with CUDC-101 + Bortezomib (first compound 0.01 µM) it was 0.922. Further, the relative viability with CUDC-101 + Bortezomib (first compound 0.03162 µM) was 0.935; with CUDC-101 + Bortezomib (first compound 0.1 µM), 1.18; in the assay with CUDC-101 + Bortezomib (first compound 0.3162 µM), 1.13; with CUDC-101 + Bortezomib (first compound 1 µM) it was 0.955.

Regarding NCI-H322M, the relative viability is 1.21 with NVP-TAE684 + Navitoclax (first compound 0.2 µM); 1.3 with NVP-TAE684 + Navitoclax (first compound 0.6325 µM); 1.2 in the assay with NVP-TAE684 + Navitoclax (first compound 2 µM); 0.899 with Vandetanib + Crizotinib (first compound 0.02 µM); 0.952 with Vandetanib + Crizotinib (first compound 0.06325 µM); 0.937 with Vandetanib + Crizotinib (first compound 0.2 µM). In addition, the relative viability stood at 0.88 in the assay with Vandetanib + Crizotinib (first compound 0.6325 µM); 0.897 in the assay with Vandetanib + Crizotinib (first compound 2 µM); 0.973 with NVP-TAE684 + Crizotinib (first compound 0.2 µM); 0.758 with NVP-TAE684 + Crizotinib (first compound 0.6325 µM); 0.845 with NVP-TAE684 + Crizotinib (first compound 2 µM); 1.15 with CUDC-101 + Bortezomib (first compound 0.01 µM). Also, the relative viability worked out at 1.44 with CUDC-101 + Bortezomib (first compound 0.03162 µM), 1.18 in the assay with CUDC-101 + Bortezomib (first compound 0.1 µM), 1.08 in the assay with CUDC-101 + Bortezomib (first compound 0.3162 µM) and 0.776 in the assay with CUDC-101 + Bortezomib (first compound 1 µM).

In the case of NCI-H441, the relative viability with NVP-TAE684 + Navitoclax (first compound 0.2 µM) came to 0.472; in the assay with NVP-TAE684 + Navitoclax (first compound 0.6325 µM) it was 0.583; with NVP-TAE684 + Navitoclax (first compound 2 µM) it was 0.319; with Vandetanib + Crizotinib (first compound 0.02 µM) it was 0.926; in the assay with Vandetanib + Crizotinib (first compound 0.06325 µM), 0.751; in the assay with Vandetanib + Crizotinib (first compound 0.2 µM), 0.687. Also, the relative viability with Vandetanib + Crizotinib (first compound 0.6325 µM) was 0.88; in the assay with Vandetanib + Crizotinib (first compound 2 µM), 0.856; in the assay with NVP-TAE684 + Crizotinib (first compound 0.2 µM), 0.661; with NVP-TAE684 + Crizotinib (first compound 0.6325 µM), 0.659; in the assay with NVP-TAE684 + Crizotinib (first compound 2 µM) it was 0.315; with CUDC-101 + Bortezomib (first compound 0.01 µM) it was 0.662. Also, the relative viability with CUDC-101 + Bortezomib (first compound 0.03162 µM) turned out to be 0.433; with CUDC-101 + Bortezomib (first compound 0.1 µM), 0.541; with CUDC-101 + Bortezomib (first compound 0.3162 µM), 0.593; in the assay with CUDC-101 + Bortezomib (first compound 1 µM), 0.335.

As for NCI-H460, the relative viability was 1.14 with NVP-TAE684 + Navitoclax (first compound 0.6325 µM); 0.407 with NVP-TAE684 + Navitoclax (first compound 2 µM); 0.902 with Vandetanib + Crizotinib (first compound 0.02 µM); 0.786 with Vandetanib + Crizotinib (first compound 0.06325 µM); 0.0179 with Vandetanib + Crizotinib (first compound 0.2 µM); 0.972 in the assay with Vandetanib + Crizotinib (first compound 0.6325 µM). Moreover, the relative viability worked out at 0.804 in the assay with Vandetanib + Crizotinib (first compound 2 µM); 1.16 in the assay with NVP-TAE684 + Crizotinib (first compound 0.2 µM); 0.831 with NVP-TAE684 + Crizotinib (first compound 0.6325 µM); 0.247 with NVP-TAE684 + Crizotinib (first compound 2 µM); 1.13 with CUDC-101 + Bortezomib (first compound 0.01 µM); 1.04 in the assay with CUDC-101 + Bortezomib (first compound 0.03162 µM). Also, the relative viability in the assay with CUDC-101 + Bortezomib (first compound 0.1 µM) was 1.09; in the assay with CUDC-101 + Bortezomib (first compound 0.3162 µM) it was 1.11; with CUDC-101 + Bortezomib (first compound 1 µM), 1.18.

Turning to NCI-H520, the relative viability worked out at 1.11 with NVP-TAE684 + Navitoclax (first compound 0.2 µM); 1.13 with NVP-TAE684 + Navitoclax (first compound 0.6325 µM); 0.357 with NVP-TAE684 + Navitoclax (first compound 2 µM); 0.923 in the assay with Vandetanib + Crizotinib (first compound 0.02 µM); 0.894 with Vandetanib + Crizotinib (first compound 0.06325 µM); 0.859 with Vandetanib + Crizotinib (first compound 0.2 µM). Also, the relative viability with Vandetanib + Crizotinib (first compound 0.6325 µM) was determined as 0.772; with Vandetanib + Crizotinib (first compound 2 µM) it was 0.655; with NVP-TAE684 + Crizotinib (first compound 0.2 µM) it was 0.668; with NVP-TAE684 + Crizotinib (first compound 0.6325 µM) it was 0.651; with NVP-TAE684 + Crizotinib (first compound 2 µM) it was 0.348; with CUDC-101 + Bortezomib (first compound 0.01 µM), 0.761. Also, the values for the relative viability in the assay with CUDC-101 + Bortezomib (first compound 0.1 µM), in the assay with CUDC-101 + Bortezomib (first compound 0.3162 µM) and with CUDC-101 + Bortezomib (first compound 1 µM) were 0.253, 0.252 and 0.116, respectively.

Consider NCI-H596, for which the relative viability came to 0.936 with NVP-TAE684 + Navitoclax (first compound 0.2 µM); 0.969 with NVP-TAE684 + Navitoclax (first compound 0.6325 µM); 0.509 with NVP-TAE684 + Navitoclax (first compound 2 µM); 0.907 in the assay with Vandetanib + Crizotinib (first compound 0.02 µM); 0.872 in the assay with Vandetanib + Crizotinib (first compound 0.06325 µM); 1.2 in the assay with Vandetanib + Crizotinib (first compound 0.2 µM). Moreover, the relative viability with Vandetanib + Crizotinib (first compound 0.6325 µM) is 1.12; with Vandetanib + Crizotinib (first compound 2 µM), 0.81; with NVP-TAE684 + Crizotinib (first compound 0.2 µM) it was 0.974; with NVP-TAE684 + Crizotinib (first compound 0.6325 µM), 0.886; in the assay with NVP-TAE684 + Crizotinib (first compound 2 µM), 0.717; in the assay with CUDC-101 + Bortezomib (first compound 0.01 µM) it was 1.13. In addition, the relative viability with CUDC-101 + Bortezomib (first compound 0.03162 µM) is 1.13; with CUDC-101 + Bortezomib (first compound 0.1 µM), 1.18; with CUDC-101 + Bortezomib (first compound 0.3162 µM) it was 0.98; with CUDC-101 + Bortezomib (first compound 1 µM), 1.

In the case of NCI-H647, the relative viability with NVP-TAE684 + Navitoclax (first compound 0.2 µM) was 1.4; in the assay with NVP-TAE684 + Navitoclax (first compound 0.6325 µM) it was 1.06; with NVP-TAE684 + Navitoclax (first compound 2 µM) it was 1.16; with Vandetanib + Crizotinib (first compound 0.02 µM) it was 1.06; with Vandetanib + Crizotinib (first compound 0.06325 µM), 1.07; with Vandetanib + Crizotinib (first compound 0.2 µM), 1.1. Moreover, the relative viability with Vandetanib + Crizotinib (first compound 0.6325 µM) was 1.06; in the assay with Vandetanib + Crizotinib (first compound 2 µM), 0.981; with NVP-TAE684 + Crizotinib (first compound 0.2 µM), 0.959; with NVP-TAE684 + Crizotinib (first compound 0.6325 µM), 0.983; with NVP-TAE684 + Crizotinib (first compound 2 µM), 0.172; with CUDC-101 + Bortezomib (first compound 0.01 µM), 1.08. Also, the relative viability with CUDC-101 + Bortezomib (first compound 0.03162 µM) was 0.948; with CUDC-101 + Bortezomib (first compound 0.1 µM), 0.871; in the assay with CUDC-101 + Bortezomib (first compound 0.3162 µM), 0.724; with CUDC-101 + Bortezomib (first compound 1 µM) it was 0.119.

On to NCI-H727, for which the relative viability turned out to be 0.381 with NVP-TAE684 + Navitoclax (first compound 0.2 µM); 0.331 with NVP-TAE684 + Navitoclax (first compound 0.6325 µM); 0.153 in the assay with NVP-TAE684 + Navitoclax (first compound 2 µM); 0.821 with Vandetanib + Crizotinib (first compound 0.02 µM); 0.885 with Vandetanib + Crizotinib (first compound 0.06325 µM); 0.786 with Vandetanib + Crizotinib (first compound 0.2 µM). For the same cell line, the relative viability turned out to be 0.65 with Vandetanib + Crizotinib (first compound 0.6325 µM); 0.687 with Vandetanib + Crizotinib (first compound 2 µM); 0.679 with NVP-TAE684 + Crizotinib (first compound 0.2 µM); 0.635 with NVP-TAE684 + Crizotinib (first compound 0.6325 µM); 0.221 with NVP-TAE684 + Crizotinib (first compound 2 µM); 0.823 with CUDC-101 + Bortezomib (first compound 0.01 µM). The relative viability in the assay with CUDC-101 + Bortezomib (first compound 0.03162 µM) was determined as 0.967; in the assay with CUDC-101 + Bortezomib (first compound 0.1 µM), 0.775; with CUDC-101 + Bortezomib (first compound 0.3162 µM), 0.993; with CUDC-101 + Bortezomib (first compound 1 µM), 0.397.
